How the values were obtained:
[1] = system: Type 2 diabetes model Zucker diabetic fatty rats; experiment: Example V: insulin content in pancreas of Zucker diabetic fatty rats (ELISA); type: in vivo, rat; conditions: twice daily p.o., day 39, starved 18 h, inhibitor A 30 mg/kg and/or metformin 200 mg/kg, FIG. 5
Protocol: Type 2 diabetes model Zucker diabetic fatty rats (age 15 weeks) were divided into groups with matched blood glucose levels and body weights. Subsequently, the inhibitor A of renal glucose reabsorption at 30 mg/kg or metformin at 200 mg/kg was orally given twice daily. Further, a group to be on a combined use of the inhibitor A of renal glucose reabsorption (30 mg/kg) and metformin (200 mg/kg) was prepared. The agents were orally given twice daily at the same time period as in the case of the groups administered with a single one of these agents. Only a vehicle was orally given twice daily to the animals in a control group. On day 39 from the start of administration, the animals were starved for 18 hours. Then, pancreas was resected from the animals, for the assay of insulin in pancreas homogenates by ELISA, to compare the groups in terms of insulin content in pancreas.
Zucker diabetic fatty rat is a type 2 diabetic model animal, where the sustainment of hyperglycemic conditions induces a high concentration of glycated hemoglobin so that the aging of the model animal involves the decrease of the insulin content in pancreas.

[2] = system: glucose-loaded mice (KK mice); experiment: Example II: blood glucose time course after oral glucose loading in KK mice; type: in vivo, mouse; conditions: glucose 1 g/kg p.o., FIG. 3; for Blood glucose 30 minutes after glucose loading / Blood glucose 60 minutes after glucose loading / Blood glucose 2 hours after glucose loading and thereafter: metformin 200 mg/kg, inhibitor A 30 mg/kg p.o., vs control; for Pattern of glycemic suppression at elevated dose: metformin 300 mg/kg, inhibitor A 45 mg/kg
Protocol: KK mice (age of 25 weeks; male) fed with a commercially available high-calories feed for breeding (CMF; Oriental Yeast) were divided into groups with matched body weights. After starvation for 17 hours, glucose was orally given at 1 g/kg. Immediately thereafter, the inhibitor A of renal glucose reabsorption (30 mg/kg or 45 mg/kg) or metformin (200 mg/kg or 300 mg/kg) was orally given. Additionally, a group given with the inhibitor A of renal glucose reabsorption (30 mg/kg) and metformin (200 mg/kg) was prepared. A vehicle was orally given to a control group after glucose dosing.
Blood glucose level was assayed in a time course.

[3] = system: glucose-loaded rats (Wistar rats); experiment: Example I: blood glucose time course after oral glucose loading in rats; type: in vivo, rat; conditions: glucose 1 g/kg p.o.
Protocol: Wistar rats (age of 7 weeks; male) were divided into groups with matched body weights. After 17-hour starvation, glucose was orally given at 1 g/kg to the animals. Immediately after the administration, the inhibitor A of renal glucose reabsorption or the inhibitor B of renal glucose reabsorption (A at 30 mg/kg or 60 mg/kg; B at 30 mg/kg or 80 mg/kg) or glibenclamide (1 mg/kg or 2 mg/kg) or nateglinide (50 mg/kg or 80 mg/kg) was orally given. Additionally, a group on the combined use of both of an inhibitor of renal glucose reabsorption and a hypoglycemic agent was also prepared. A vehicle was orally given to a control group after glucose administration.
Blood glucose was measured in a time course.

Male Wistar rats [4] = experiment: Test Example 1B: excretion action of urine sugar in rat; type: in vivo; conditions: oral administration, 24 hours
Protocol: Male Wistar rats aged 5 weeks (purchased from Charles River Japan, Inc.) were acclimatized in metabolic cages for one week, for use at this experiment. The test compounds suspended in olive oil were prepared into solutions to a dose of 5 ml per 1 kg rat body weight. After the rats were starved for 4 hours, the test compounds were orally given at 10, 30 and 100 mg/kg to the rats at 11 am. Immediately after dosing until 24 hours later, urine was collected. The volume of urine was measured. Then, urine glucose concentration was assayed by glucose oxidase method, to calculate the glucose excretion into urine per individual per day. As a positive control, 3-(5-benzo[b]furanyl)-2′-(6-o-methoxycarbonyl-β-D-glucopyranosyloxy)-6′-hydroxy-4′-methylpropiophenone [under a different name of 3-(benzo[b]furan-5-yl)-2′,6′-dihydroxy-4′-methylpropiophenone 2′-o-(6-o-methoxycarbonyl-β-D-glucopyranoside)] was used.

[5] = system: Type 2 diabetes model db/db mice; experiment: Example IV: nateglinide load test after 25 days of dosing in db/db mice; type: in vivo, mouse; conditions: db/db mice after long-term inhibitor B 80 mg/kg twice daily; compared with vehicle-dosed and nateglinide-dosed groups
Protocol: Type 2 diabetes model db/db mice (age 6 weeks) were fed and kept with a feed twice daily over one hour starting 9 am and one hour starting 3 pm, for one week. Then, the mice were divided into groups with matched blood glucose levels and body weights. Subsequently, the inhibitor B of renal glucose reabsorption at 80 mg/kg or nateglinide at 80 mg/kg was orally given, immediately before feeding twice daily. Only a vehicle was orally given immediately before feeding twice daily to the animals of a control group. […] Blood glucose levels were measured before and after the administration, to examine whether or not the hypoglycemic action of nateglinide could be observed (nateglinide load test).

Male Wistar rats [6] = experiment: Test Example 1: evaluation of urine sugar excretion action in rats; type: in vivo, rat; conditions: 100 mg/kg p.o. in olive oil, urine collected 24 hours, per individual per day
Protocol: Male Wistar rats aged 5 weeks (purchased from Charles River Japan, Inc.) were acclimatized in metabolic cages for one week, for use at this experiment. The test compounds suspended in olive oil were prepared into a 20 mg/ml solution to a dose of 5 ml per 1 kg rat body weight.
After the rats were starved for 4 hours, the test compounds were orally given at 100 mg/kg to the rats at 11 am. Immediately after dosing until 24 hours later, urine was collected. The volume of urine was measured. Then, urine sugar concentration was assayed by glucose oxidase method, to calculate the glucose excretion into urine per individual per day.

[7] = system: Type 2 diabetic model GK rats; experiment: Example III: blood glucose on day 25 of once daily dosing in GK rats; type: in vivo, rat; conditions: once daily p.o., FIG. 4
Protocol: Type 2 diabetic model GK rats (age of 7 weeks; male) were divided into groups with matched blood glucose levels and body weights, for once daily oral administration of the inhibitor A of renal glucose reabsorption (30 mg/kg) or glibenclamide at 3 or 6 mg/kg. Further, a group given with a combination of the inhibitor A of renal glucose reabsorption at 30 mg/kg and glibenclamide at 3 mg/kg was prepared. These agents were orally given once daily at the same time period as in the group administered with a single one agent. Only a vehicle was given orally to a control group. On day 25 after the start of administration, blood glucose was assayed sequentially, to compare the groups in terms of the resulting blood glucose levels.

[8] = system: Renal brush border membrane; experiment: Test Example 1A: inhibitory action of 14C-D-glucose uptake; type: biochemical; conditions: rat renal brush border membrane, 37° C., 30 minutes preincubation
Protocol: Test compounds were dissolved in 100 mM mannitol-10 mM HEPES/Tris, pH 7.4 to prepare solutions at various concentrations.
Renal brush border membrane was prepared from a rat kidney, to which a solution of a test compound was added for incubation at 37° C. for 30 minutes. Then, ^14C-D-glucose was added for incubation for one minute. A solution containing 1 mM phlorizin was used to terminate the glucose uptake reaction. The radioactivity ^14C of ^14C-D-glucose incorporated in the renal brush border membrane was counted with a liquid scintillation counter. The glucose uptake independent on sodium was reduced from the glucose uptake in a control group or a test group, to calculate the inhibition intensity.

[9] = glibenclamide 1 mg/kg and/or inhibitor A 30 mg/kg p.o., vs vehicle, FIG. 1
[10] = glibenclamide 2 mg/kg, inhibitor A 60 mg/kg, FIG. 1
[11] = glibenclamide 3 mg/kg and/or inhibitor A 30 mg/kg

With `CN(C)C(=N)N=C(N)N` [metformin, reference compound] as the compound, how does the “Insulin content in pancreas” value [1] read?
The value was “no difference was observed in insulin content in spleen”.

What about the “Blood glucose 30 minutes after glucose loading” value [2] of the same compound?
The value was “did not suppress the increase of blood glucose in the mice 30 minutes after glucose loading”.

And the “Blood glucose 60 minutes after glucose loading” value [2]?
The value was “suppressed the increase 60 minutes later and thereafter”.

And the “Blood glucose 2 hours after glucose loading and thereafter” value [2]?
The value was “suppressed the increase 60 minutes later and thereafter”.

And the “Pattern of glycemic suppression at elevated dose” value [2]?
The value was “The pattern of glycemic suppression did not change even when the dose was elevated”.

Which “Blood glucose 180 minutes after glucose loading and thereafter” value ([3]; inhibitor B 30 mg/kg alone or with nateglinide 50 mg/kg p.o., vs vehicle, FIG. 2) does the source give for `COC(=O)OC[C@H]1O[C@@H](Oc2cc(C)cc(O)c2C(=O)CCc2ccc3occc3c2)[C@H](O)[C@@H](O)[C@@H]1O` [3-(5-benzo[b]furanyl)-2′-(6-o-methoxycarbonyl-β-D-glucopyranosyloxy)-6′-hydroxy-4′-methylpropiophenone] here?
The value was “lower than that in the vehicle-dosed group”.

What about the “Pattern of glycemic suppression at increased dose” value ([3]; nateglinide 80 mg/kg, inhibitor B 80 mg/kg, FIG. 2) of the same compound?
The value was “This pattern of glycemic suppression was also observed in the group with the increase of the dose”.

What about the Excreted urine sugar (Male Wistar rats [4]; Dose 10 mg/kg) of the same compound?
Its Excreted urine sugar is 2 mg.

And the “Hyperglycemia 30 minutes after loading with glucose and nateglinide (in words)” value [5]?
Its value is “nateglinide greatly suppressed hyperglycemia due to glucose loading”.

For `CCc1ccc(Cc2c(OC3OC(COC(=O)OC)C(O)C(O)C3O)nn(C3CCC3)c2C(F)(F)F)cc1` [Production Example 2, 1′-cyclobutyl-4′-[(4-ethylphenyl)methyl]-5′-trifluoromethyl-1H-pyrazole-3′-o-(6-carbomethoxy)-β-D-glucopyranoside], which Urine sugar excretion (Male Wistar rats [6]) is on record?
Its Urine sugar excretion is 656 mg.

With `COc1ccc(Cl)cc1C(=O)NCCc1ccc(S(=O)(=O)NC(=O)NC2CCCCC2)cc1` [glibenclamide] as the compound, how does the “Blood glucose 120 minutes after glucose loading and thereafter” value [3, 9] read?
The value was “lowered blood glucose 120 minutes after glucose loading and thereafter”.

And the “Blood glucose immediately after glucose loading (30 minutes)” value [3, 9]?
Its value is “did not suppress hyperglycemia immediately after glucose loading”.

What about the “Pattern of glycemic suppression at increased dose” value [3, 10] of the same compound?
Its value is “did not change changed the pattern of glycemic suppression”.

What about the “Blood glucose level on day 25” value [7, 11] of the same compound?
Its value is “no difference was observed from the vehicle-dosed group in terms of the blood glucose levels”.

And the “Blood glucose level on day 25” value ([7]; glibenclamide 6 mg/kg)?
Its value is “did not produce any difference in blood glucose level from the vehicle-dosed group”.

Which results are given for `CCc1ccc(Cc2c(O[C@@H]3O[C@H](CO)[C@@H](O)[C@H](O)[C@H]3O)nn(C3CCC3)c2C(F)(F)F)cc1` [1′-cyclobutyl-4′-[(4-ethylphenyl)methyl]-5′-trifluoromethyl-1H-pyrazole-3′-o-β-D-glucopyranoside]?
Blood glucose immediately after glucose loading (30 minutes) [3, 9]: suppressed hyperglycemia observed in the vehicle group immediately after glucose loading; Pattern of glycemic suppression at increased dose [3, 10]: The pattern of glycemic suppression did not change even when the dose was elevated; Blood glucose level on day 25 [7, 11]: significantly lowered, compared with the group given the vehicle; Insulin content in pancreas [1]: no difference was observed in insulin content in spleen; Blood glucose 30 minutes after glucose loading [2]: could suppress hyperglycemia 30 minutes and 60 minutes after glucose loading; Blood glucose 60 minutes after glucose loading [2]: could suppress hyperglycemia 30 minutes and 60 minutes after glucose loading; Blood glucose 2 hours after glucose loading and thereafter [2]: could not suppress the blood glucose level 2 hours later and thereafter; Pattern of glycemic suppression at elevated dose [2]: the pattern of glycemic suppression did not change even when the dose was elevated

For `CCc1ccc(Cc2c(OC3OC(COC(=O)OC)C(O)C(O)C3O)nn(C3CCCC3)c2C(F)(F)F)cc1` [Production Example 4, 1′-cyclopentyl-4′-[(4-ethylphenyl)methyl]-5′-trifluoromethyl-1H-pyrazole-3′-o-(6-carbomethoxy)-β-D-glucopyranoside], which Urine sugar excretion (Male Wistar rats [6]) is on record?
The Urine sugar excretion was 452 mg.

How did the Inhibition intensity ([8]; concentration of test compound 10 μM) turn out when `CSc1ccc(Cc2c(O[C@@H]3O[C@H](CO)[C@@H](O)[C@H](O)[C@H]3O)n[nH]c2C(F)(F)F)cc1` [Production Example 1-A, 4-((4-methylthiophenyl)methyl)-5-(trifluoromethyl)-1H-pyrazole-3-o-β-D-glucopyranoside] was run?
Its Inhibition intensity is 84% (10 μM).

`CCc1ccc(Cc2c(OC3OC(COC(=O)OC)C(O)C(O)C3O)nn(C(CF)CF)c2C(F)(F)F)cc1` [Production Example 2B, 4′-[(4′-ethylphenyl)methyl]-1′-(1′,3′-difluoro-2′-propyl)-5′-(trifluoromethyl)-1H-pyrazole-3′-o-(6-o-methoxycarbonyl-β-D-glucopyranoside)] was tested. Which Excreted urine sugar (Male Wistar rats [4]; Dose 10 mg/kg) did it give?
Its Excreted urine sugar is 136 mg.

What about the Excreted urine sugar (Male Wistar rats [4]; Dose 30 mg/kg) of the same compound?
The Excreted urine sugar was 272 mg.

And the Excreted urine sugar (Male Wistar rats [4]; Dose 100 mg/kg)?
The Excreted urine sugar was 524 mg.

Which Inhibition intensity ([8]; concentration of test compound 100 μM) does the source give for `CCc1ccc(Cc2c(O[C@@H]3O[C@H](C(=O)O)[C@@H](O)[C@H](O)[C@H]3O)n[nH]c2C(F)(F)F)cc1` [Production Example 2-A, 4-((4-ethylphenyl)methyl)-5-(trifluoromethyl)-1H-pyrazol-3-yl-β-D-glucopyranoside uronic acid] here?
Its Inhibition intensity is 30% (100 μM).
